Measured values from paper PMC12122428, “Discovery of non-covalent rhinovirus 3Cpro inhibitors by molecular docking, in vitro assays, molecular dynamics simulations and DFT analyses” (Frontiers in Pharmacology, 2025).
Like-named read-outs stand apart in the source and are kept apart here.

Columns and labels:
HRV-14 3Cpro [1] = target: T1, HRV-14 3Cpro (Human rhinovirus 14, UniProt P03303); conditions: cited from earlier work
T1 construct: most efficiently processed substrate by HRV-14 3Cpro (Acro, Beijing, China); purchased Acro, Beijing, China
T1 sequence (P03303 1538-1719): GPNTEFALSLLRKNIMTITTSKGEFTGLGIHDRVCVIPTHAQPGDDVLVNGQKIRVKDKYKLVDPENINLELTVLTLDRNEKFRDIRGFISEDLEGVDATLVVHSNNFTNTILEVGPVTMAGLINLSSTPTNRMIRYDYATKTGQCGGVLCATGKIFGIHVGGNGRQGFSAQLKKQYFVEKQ

HRV-14 3Cpro [2] = target: T1, HRV-14 3Cpro; assay: HRV-14 3Cpro enzyme inhibition assay (Dabcyl-[…]-Edans cleavage, fluorescence); type: biochemical; conditions: for inhibition at 50 µM / Inhibition % HRV 3Cpro @ 50 μM: 50 μM compound, single point; for IC50: concentration-response, 50 μM to 0.617 μM, n = 5, mean ± SEM
Procedure: In the in vitro cleavage assay, the peptide Dabcyl-[…]-Edans was identified as the most efficiently processed substrate by HRV-14 3Cpro (Acro, Beijing, China), and was subsequently utilized in the enzyme inhibition assay. A total of 44 candidate compounds were purchased from Topscience (TargetMol, United States). Dimethyl sulfoxide (DMSO) (Innochem, Beijing, China) served as the solvent for dissolving the compounds, and all solutions were stored at −20°C. The assays were conducted using 100 μL reaction samples, which comprised 1 μL of protease, 10 μL of a 10 μM substrate solution, and varying concentrations of the tested compounds (ranging from 50 μM to 0.617 μM) in a 50 mM Tris buffer at pH 7.0. To evaluate the inhibitory effects of the compounds, the protease and each compound were preincubated at 37°C for 30 min before the addition of the substrate. The reaction mixture was subsequently incubated for 1 h at 37°C. Fluorescence measurements were performed using a multifunction enzyme label reader (SpectraMax M5, Molecular Devices), set to an excitation wavelength of 340 nm and an emission wavelength of 490 nm. […] The inhibition rate was quantified according to the following formula: Inhibition rate 100%=RFUemzyme−RFUsample/RFUemzyme−RFUcontrol×100%

HRV-14 = conditions: ref Binford et al., 2007; Zalman et al., 2000; read-out: antiviral activity EC50; cited from earlier work

Row | SMILES | inhibition at 50 µM (HRV-14 3Cpro [2]) | Inhibition % HRV 3Cpro @ 50 μM (HRV-14 3Cpro [2]) | IC50 (HRV-14 3Cpro [2]) | pIC50 (HRV-14 3Cpro [1]; non-covalent inhibitor, ref Baxter et al., 2011) | EC50 (HRV-14) | IC50 (HRV-14 3Cpro [1]; macrocyclic covalent inhibitor, ref Kawatkar et al., 2016, Namoto et al., 2018)
1 | O=c1cc(-c2cccnc2)[nH]c2cc(Cc3ccccc3)ccc12 [Compound 14] | – | – | – | 4.7 | – | –
2 | CCOC(=O)/C=C/[C@H](C[C@@H]1CCNC1=O)NC(=O)[C@@H](CC(=O)[C@@H](NC(=O)c1cc(C)on1)C(C)C)Cc1ccc(F)cc1 [Rupintrivir, reference compound] | – | – | 220 ± 340 nM | – | 12 nM | –
3 | Cc1occc1C(=O)N[C@@H]1C(=O)N[C@@H](Cc2ccc(F)cc2)C(=O)N[C@H](C=O)CCC(=O)N(C)Cc2cccc1c2 [compound 10] | – | – | – | – | – | 8 nM

Continued, in another order:

Row | inhibition at 50 µM (HRV-14 3Cpro [2]) | Inhibition % HRV 3Cpro @ 50 μM (HRV-14 3Cpro [2]) | IC50 (HRV-14 3Cpro [2]) | SMILES | pIC50 (HRV-14 3Cpro [1]; non-covalent inhibitor, ref Baxter et al., 2011) | EC50 (HRV-14) | IC50 (HRV-14 3Cpro [1]; macrocyclic covalent inhibitor, ref Kawatkar et al., 2016, Namoto et al., 2018)
4 | 80.5% | 80.5% | 30400 ± 670 nM | Nc1c(NC(=O)NC[C@H]2CCCO2)c(-c2ccccc2)nn1-c1ccc(C(F)(F)F)cc1 [Compound S21] | – | – | –
5 | 96.5% | – | 11300 ± 710 nM | O=C(COC(=O)[C@@H](CC(=O)c1ccccc1)Nc1ccc(F)cc1)c1ccccc1 [Compound S33] | – | – | –
6 | 75.6% | 75.5% | 24100 ± 550 nM | CCOc1ccc(NC(=O)[C@H](CC(C)C)NC(=O)[C@H]2CC[C@@H](C)CC2)cc1 [Compound S34] | – | – | –
7 | 88.8% | 88.7% | 2330 ± 500 nM | CCC(CC)C(=O)Nc1cccc(C(=O)Nc2ccccc2C(=O)Nc2ccc(OC)cc2)c1 [Compound S43] | – | – | –
